Data: PubChem BioAssay AID330 (DTP/NCI, 2004)
Values joined by “and” are separate entries in the source; they are usually repeats but may differ in a detail not shown here. Identical values can stand only once. Toxic doses and inconclusive results are not listed.

Test system: P388 leukemia ip, CD2F1 mice, survival T/C
Assay: NCI In Vivo Anticancer Drug Screen. Data for tumor model P388 Leukemia (intraperitoneal) in CD2F1 (CDF1) mice
Settings: endpoint: median survival time, higher = longer survival
Summary of the method: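 Mice carrying the transplanted tumor received test compound or vehicle. Survival was recorded in each group, and the value is the treated-group measurement divided by that of the vehicle-treated control group.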

[1] = dose: 60.0 mg/kg/injection, schedule: Q01DX005 (ip), vehicle: saline
[2] = dose: 120.0 mg/kg/injection, schedule: Q01DX005 (ip), vehicle: saline
[3] = dose: 240.0 mg/kg/injection, schedule: Q01DX005 (ip), vehicle: saline
[4] = dose: 50.0 mg/kg/injection, schedule: Q01DX009 (ip), vehicle: Klucel (hydroxypropylcellulose) (HPC)
[5] = dose: 100.0 mg/kg/injection, schedule: Q01DX009 (ip), vehicle: Klucel (hydroxypropylcellulose) (HPC)
[6] = dose: 50.0 mg/kg/injection, schedule: Q01DX009 (ip), vehicle: saline with Tween-80
[7] = dose: 100.0 mg/kg/injection, schedule: Q01DX009 (ip), vehicle: saline with Tween-80
[8] = dose: 200.0 mg/kg/injection, schedule: Q01DX009 (ip), vehicle: saline with Tween-80
[9] = dose: 50.0 mg/kg/injection, schedule: Q01DX009 (ip), vehicle: saline
[10] = dose: 50.0 mg/kg/injection, schedule: Q01DX005 (ip), vehicle: Klucel (hydroxypropylcellulose) (HPC)
[11] = dose: 100.0 mg/kg/injection, schedule: Q01DX005 (ip), vehicle: Klucel (hydroxypropylcellulose) (HPC)
[12] = dose: 200.0 mg/kg/injection, schedule: Q01DX005 (ip), vehicle: Klucel (hydroxypropylcellulose) (HPC)
[13] = dose: 60.0 mg/kg/injection, schedule: Q01DX005 (ip), vehicle: saline with Tween-80
[14] = dose: 120.0 mg/kg/injection, schedule: Q01DX005 (ip), vehicle: saline with Tween-80
[15] = dose: 50.0 mg/kg/injection, schedule: Q01DX005 (ip), vehicle: saline with Tween-80
[16] = dose: 200.0 mg/kg/injection, schedule: Q01DX005 (ip), vehicle: saline with Tween-80
[17] = dose: 12.5 mg/kg/injection, schedule: Q01DX009 (ip), vehicle: other
[18] = dose: 25.0 mg/kg/injection, schedule: Q01DX009 (ip), vehicle: other
[19] = dose: 50.0 mg/kg/injection, schedule: Q01DX009 (ip), vehicle: other
[20] = dose: 240.0 mg/kg/injection, schedule: Q01DX005 (ip), vehicle: saline with Tween-80

O=C(NC1CCCCC1)O/N=C/c1ccccn1
T/C (dose: 50.0 mg/kg/injection, schedule: Q01DX001 (ip), vehicle: other): 95 % of control
T/C (dose: 100.0 mg/kg/injection, schedule: Q01DX001 (ip), vehicle: other): 95 % of control
T/C (dose: 200.0 mg/kg/injection, schedule: Q01DX001 (ip), vehicle: other): 100 % of control

Cc1cc2c(=O)c3ccccc3oc2c(C#N)c1C
T/C [1]: 97 % of control
T/C [2]: 91 % of control
T/C [3]: 89 % of control

NNC(=O)c1ccc(-c2ccccc2)cc1
T/C (dose: 6.25 mg/kg/injection, schedule: Q01DX009 (ip), vehicle: Klucel (hydroxypropylcellulose) (HPC)): 102 % of control
T/C (dose: 12.5 mg/kg/injection, schedule: Q01DX009 (ip), vehicle: Klucel (hydroxypropylcellulose) (HPC)): 107 % of control
T/C (dose: 25.0 mg/kg/injection, schedule: Q01DX009 (ip), vehicle: Klucel (hydroxypropylcellulose) (HPC)): 102 % of control
T/C [4]: 110 % of control
T/C [5]: 116 % of control

CC(NC(=O)OCc1ccccc1)C(=O)Oc1cc(Cl)c(Cl)cc1Cl (configuration not stated)
T/C [6]: 109 % of control
T/C [7]: 104 % of control
T/C [8]: 107 % of control

C[N+](C)(CCS(=O)(=O)[O-])C1CCCCC1
T/C [9]: 98 % of control
T/C (dose: 100.0 mg/kg/injection, schedule: Q01DX009 (ip), vehicle: saline): 90 % of control
T/C (dose: 200.0 mg/kg/injection, schedule: Q01DX009 (ip), vehicle: saline): 91 % of control

CC(C)CC(NCCC#N)C(=O)O (configuration not stated)
T/C [10]: 105 % of control
T/C [11]: 105 % of control
T/C [12]: 108 % of control

O=C1NC(=Nc2ccccc2)N(c2ccccc2)C1=Nc1ccccc1
T/C [6]: 88 % of control
T/C [7]: 91 % of control
T/C [8]: 86 % of control

CC(C)N(c1cc(=O)nc2ccccn12)C(C)C
T/C [1]: 101 % of control
T/C [2]: 98 % of control
T/C [3]: 100 % of control

CC(Cl)CNCC(C)(C)C (configuration not stated)
T/C (dose: 50.0 mg/kg/injection, schedule: Q01DX005 (ip), vehicle: saline): 100 % of control
T/C (dose: 100.0 mg/kg/injection, schedule: Q01DX005 (ip), vehicle: saline): 99 % of control

CNC(=O)OCc1c(COC(=O)NC)c(C)n(-c2ccc(Br)cc2)c1C
T/C (dose: 12.5 mg/kg/injection, schedule: Q01DX009 (ip), vehicle: saline): 152 % of control and 154 % of control
T/C (dose: 25.0 mg/kg/injection, schedule: Q01DX009 (ip), vehicle: saline): 157 % of control
T/C [9]: 89 % of control

CCC12OC(COc3ccccc3)CN1CCN2c1ccccc1 (configuration not stated)
T/C [13]: 97 % of control
T/C [14]: 98 % of control

C/C(=N\NC(=S)NC12CC3CC(CC(C3)C1)C2)c1ccccn1
T/C (dose: 100.0 mg/kg/injection, schedule: Q04DX003 (ip), vehicle: saline with Tween-80): 113 % of control
T/C (dose: 200.0 mg/kg/injection, schedule: Q04DX003 (ip), vehicle: saline with Tween-80): 104 % of control

O=C(/C(=N/Nc1ccccc1)C(=S)Nc1ccccc1)c1ccccc1
T/C (dose: 3.13 mg/kg/injection, schedule: Q01DX005 (ip), vehicle: saline with Tween-80): 99 % of control
T/C (dose: 6.25 mg/kg/injection, schedule: Q01DX005 (ip), vehicle: saline with Tween-80): 95 % of control
T/C (dose: 12.5 mg/kg/injection, schedule: Q01DX005 (ip), vehicle: saline with Tween-80): 91 % of control and 92 % of control
T/C (dose: 25.0 mg/kg/injection, schedule: Q01DX005 (ip), vehicle: saline with Tween-80): 90 % of control
T/C [15]: 89 % of control and 93 % of control
T/C [16]: 90 % of control

CC1(C)CCNc2ccccc2S1
T/C (dose: 100.0 mg/kg/injection, schedule: Q01DX001 (ip), vehicle: saline with Tween-80): 103 % of control
T/C (dose: 200.0 mg/kg/injection, schedule: Q01DX001 (ip), vehicle: saline with Tween-80): 103 % of control
T/C (dose: 400.0 mg/kg/injection, schedule: Q01DX001 (ip), vehicle: saline with Tween-80): 100 % of control

CCCC(=O)OCc1cc(=O)n(C)c2c3c4c(cc12)c(C)cc(=O)n4CO3
T/C [17]: 157 % of control
T/C [18]: 151 % of control and 171 % of control
T/C [19]: 163 % of control

CCOC(=O)/C(C#N)=C(O)\C(=C\c1ccc(Cl)cc1)NC(=O)c1ccc(NC(C)=O)cc1
T/C [13]: 108 % of control
T/C [14]: 97 % of control
T/C [20]: 97 % of control

CC(CCO)CCCO (configuration not stated)
T/C [13]: 97 % of control
T/C [14]: 95 % of control
T/C [20]: 101 % of control

O=C(Cc1nc2ccccc2nc1CC(=O)c1cccnc1)c1cccnc1
T/C [13]: 102 % of control
T/C [14]: 93 % of control
T/C [20]: 93 % of control

O=S(=O)(F)/C=C/c1ccccc1
T/C [6]: 109 % of control
T/C [7]: 109 % of control

CCOC(=O)c1cc2c(OC)c(OC)ccc2cc1N
T/C [17]: 100 % of control
T/C [18]: 103 % of control
T/C [19]: 100 % of control
T/C (dose: 100.0 mg/kg/injection, schedule: Q01DX009 (ip), vehicle: other): 115 % of control

CC(C)=CCCC1(C)C=Cc2c(ccc3c(C)coc23)O1 (configuration not stated)
T/C [15]: 97 % of control
T/C (dose: 100.0 mg/kg/injection, schedule: Q01DX005 (ip), vehicle: saline with Tween-80): 100 % of control
T/C [16]: 100 % of control

CCOC(=O)c1ccc(NC(=O)c2cccc(Cl)c2)cc1
T/C [4]: 104 % of control
T/C [5]: 100 % of control
T/C (dose: 200.0 mg/kg/injection, schedule: Q01DX009 (ip), vehicle: Klucel (hydroxypropylcellulose) (HPC)): 98 % of control

COc1cc2c(c(OC)c1OC)-c1cc3c(cc1C(OC1OC(CO)C(O)C(O)C1O)C1COC(=O)C1C2)OCO3 (configuration not stated)
T/C (dose: 15.38 mg/kg/injection, schedule: Q01DX005 (ip), vehicle: Klucel (hydroxypropylcellulose) (HPC)): 108 % of control
T/C (dose: 30.75 mg/kg/injection, schedule: Q01DX005 (ip), vehicle: Klucel (hydroxypropylcellulose) (HPC)): 100 % of control
T/C (dose: 61.5 mg/kg/injection, schedule: Q01DX005 (ip), vehicle: Klucel (hydroxypropylcellulose) (HPC)): 113 % of control
T/C (dose: 123.0 mg/kg/injection, schedule: Q01DX005 (ip), vehicle: Klucel (hydroxypropylcellulose) (HPC)): 121 % of control

OCc1ccc(CO)cc1
T/C (dose: 100.0 mg/kg/injection, schedule: Q04DX003 (ip), vehicle: saline sonified): 104 % of control
T/C (dose: 200.0 mg/kg/injection, schedule: Q04DX003 (ip), vehicle: saline sonified): 100 % of control
T/C (dose: 400.0 mg/kg/injection, schedule: Q04DX003 (ip), vehicle: saline sonified): 100 % of control

Nc1ccc2c(c1N)C(=O)c1ccccc1C2=O
T/C [10]: 101 % of control
T/C [11]: 100 % of control
T/C [12]: 100 % of control

Cc1c2oc3c(C)ccc(C(=O)NC(C(=O)NC(C(=O)NN)C(C)C)C(C)O)c3nc-2c(C(=O)NC(C(=O)NC(C(=O)NN)C(C)C)C(C)O)c(N)c1=O (configuration not stated)
T/C (dose: 0.05 mg/kg/injection, schedule: Q01DX009 (ip), vehicle: water): 106 % of control
T/C (dose: 0.1 mg/kg/injection, schedule: Q01DX009 (ip), vehicle: water): 107 % of control
T/C (dose: 0.2 mg/kg/injection, schedule: Q01DX009 (ip), vehicle: water): 97 % of control
T/C (dose: 0.4 mg/kg/injection, schedule: Q01DX009 (ip), vehicle: water): 101 % of control
T/C (dose: 0.8 mg/kg/injection, schedule: Q01DX009 (ip), vehicle: water): 101 % of control
T/C (dose: 1.6 mg/kg/injection, schedule: Q01DX009 (ip), vehicle: water): 108 % of control and 110 % of control
T/C (dose: 3.2 mg/kg/injection, schedule: Q01DX009 (ip), vehicle: water): 99 % of control
T/C (dose: 6.4 mg/kg/injection, schedule: Q01DX009 (ip), vehicle: water): 99 % of control
T/C (dose: 12.8 mg/kg/injection, schedule: Q01DX009 (ip), vehicle: water): 97 % of control

CN1C2CCC1c1c([nH]c3ccccc13)C2 (configuration not stated)
T/C [13]: 94 % of control
T/C [14]: 94 % of control

CCCCOP(O)(=S)OCCCC.[Tb]
T/C (dose: 100.0 mg/kg/injection, schedule: Q04DX002 (ip), vehicle: saline with Tween-80): 100 % of control
T/C (dose: 200.0 mg/kg/injection, schedule: Q04DX002 (ip), vehicle: saline with Tween-80): 96 % of control
T/C (dose: 400.0 mg/kg/injection, schedule: Q04DX002 (ip), vehicle: saline with Tween-80): 95 % of control
